RP-LC retention time data for 80 compounds are collected here from the METLIN SMRT retention time set (Domingo-Almenara et al. 2019).

Molecules are shown by their SMILES.

A short description of this series: gradient 5% acetonitrile 3 min, to 50% in 2 min, to 85% in 15 min, held 3 min, 100 µL/min. The note with it: column: Zorbax Extend-C18 2.1 x 50 mm; eluents: water / acetonitrile, 0.1% formic acid. In short, it runs like this:
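Data were gathered over 3 months by HPLC coupled to a quadrupole time-of-flight mass spectrometer, operated in positive and negative ionization mode. Mixtures of ~100 pure standards ran on a Zorbax Extend-C18 column (2.1 × 50 mm, 1.8 μm) at 100 μL/min, with water and acetonitrile each containing 0.1% formic acid and dead and dwell volumes of 40 μL and 900 μL. Retention time was read from adduct peaks picked by computer and checked manually.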
Take `CCn1c(=O)sc2cc(S(=O)(=O)N3CCC(C(=O)NCc4ccc(F)cc4)CC3)ccc21`: the RP-LC retention time was 979 s.
Regarding `CCC(C(=O)NCCc1c(C)nn(CC)c1C)n1c2ccccc2c2cnn(C)c(=O)c21` (stereo not given), the RP-LC retention time came out at 698 s.
Consider `CCc1nn2c(CNC(=O)c3ccc(C(F)(F)F)cc3)c(C)nc2s1`, for which the RP-LC retention time stood at 714 s.
`CCn1c(=O)n(CC)c2cc(NC3=NS(=O)(=O)c4ccccc43)ccc21` showed an RP-LC retention time of 702 s.
Regarding `COc1ccc(C(=O)NCCc2ccc(S(N)(=O)=O)cc2)nn1`, the RP-LC retention time was 604 s.
`CCOC(=O)C1=C(C)NC2=C(C(=O)C(C(=O)OC)C(C)C2)C1c1cccc(OC)c1` (stereo not given) came in with an RP-LC retention time of 846 s.
As to `CCn1c(=O)c2cc(C(=O)N3CCC(Cc4ccccc4)CC3)nn2c2ccccc21`, the RP-LC retention time stood at 1150 s.
In the case of `Cc1cc(C(=O)NC2CCCCCC2)nn1C`, the RP-LC retention time stood at 799 s.
In turn, `O=c1c2cnn(-c3ccc(F)cc3)c2ncn1Cc1nc(-c2ccc(OC(F)(F)F)cc2)no1` displayed an RP-LC retention time of 1160 s.
As for `Cc1sc2ccn(CC(C)C)c(=O)c2c1C(=O)N1CCCCCC1`, the RP-LC retention time was 897 s.
In the case of `CCCc1ccc(S(=O)(=O)N2CCC(n3cnc4c(C)cccc4c3=O)CC2)cc1`, the RP-LC retention time is 640 s.
In the case of `CCN1C(=O)c2cc(S(=O)(=O)NCc3ccccc3C)ccc2Oc2cccnc21`, the RP-LC retention time came to 1020 s.
The compound `Cc1ccsc1C(=O)Nc1ccc2c(c1)CCC(=O)N2C` registered an RP-LC retention time of 733 s.
`Cc1noc(C)c1S(=O)(=O)N1CC(c2nnc(-c3ccncc3)o2)C2(CCOCC2)C1` (stereo not given) had an RP-LC retention time of 663 s.
`CC1CCN(c2cc(-n3cnc(C(=O)N4CCN(c5ccccc5F)CC4)c3)ncn2)CC1` gave an RP-LC retention time of 1090 s.
Turning to `O=C(Nc1ccc2c(c1)OCO2)C1CCN(c2cc(N3CCCCC3)ncn2)CC1`, the RP-LC retention time was found to be 677 s.
Turning to `COc1cccc2c(SCc3ccccn3)nccc12`, the RP-LC retention time came out at 683 s.
In turn, `Fc1cccc(-c2nnc(Cc3nc(-c4cccc(Cl)c4)no3)o2)c1` returned an RP-LC retention time of 1070 s.
`CN1CCCn2nc(C3CCN(C(=O)CSc4ccncc4)CC3)cc2C1=O` registered an RP-LC retention time of 569 s.
`COc1ccc(CN2CCC3(CC2)CC(O)CCO3)cc1` (stereo not given) yielded an RP-LC retention time of 564 s.
For `Cc1ccccc1CN1N=C(C(=O)N2CCCC2)S(=O)(=O)c2ccccc21`, the RP-LC retention time amounted to 869 s.
Turning to `Cc1ccc(-c2noc(Cn3c(=O)n(C(C)C)c(=O)c4ccccc43)n2)cc1`, the RP-LC retention time stood at 1150 s.
In turn, `Cc1ccc2nc(-c3ccccc3NC(=O)c3ccc(Br)o3)[nH]c2c1` displayed an RP-LC retention time of 1140 s.
`COc1ccccc1N1C(=O)C2ON(c3ccccc3)C(c3cccc([N+](=O)[O-])c3)C2C1=O` (stereo not given) returned an RP-LC retention time of 615 s.
On to `Cc1ccc(Cn2c(C)c(CNCCc3ccco3)c(C(=O)O)c2C)cc1`, for which the RP-LC retention time stood at 630 s.
On to `Cc1ccc(-c2noc(CN3C(=O)COc4ccc(C(C)(C)C)cc43)n2)cc1`, for which the RP-LC retention time was found to be 1310 s.
Consider `O=S(=O)(c1ccccc1)N1CCC(CCOc2ccccc2)C1` (stereo not given), for which the RP-LC retention time amounted to 754 s.
As for `Cc1cc(C(=O)NC(C)c2ccccc2)n(-c2ccccc2)n1` (stereo not given), the RP-LC retention time worked out at 850 s.
Then `Cc1cn(-c2cc(NC(=O)c3ccc(C)c(Nc4nccc(-c5cccnc5)n4)c3)cc(C(F)(F)F)c2)cn1`, with 776 s.
Regarding `CCCS(=O)(=O)c1nc2ccc(NS(=O)(=O)c3cc(F)ccc3F)cc2s1`, the RP-LC retention time was 918 s.
Turning to `Cc1ccc(Cn2c(N3CCCC(C(=O)NCc4ccc(F)cc4)C3)nc3ccsc3c2=O)cc1` (stereo not given), the RP-LC retention time came out at 993 s.
Compound `Cc1ccc(C(=O)N2CCC(n3c(=O)n(C)c4cncnc43)CC2)s1` displayed an RP-LC retention time of 659 s.
On to `COCc1cc(=O)n(Cc2ccccc2C#N)c(N2CCCC2)n1`, for which the RP-LC retention time came out at 744 s.
In turn, `O=S(=O)(c1ccc(-c2nnc(C3CCCC3)o2)o1)N1CCCCCC1` came in with an RP-LC retention time of 1060 s.
`O=C(c1ccc(Cl)s1)N1CCc2nc(-c3ccc(Cl)cc3)ncc2C1` gave an RP-LC retention time of 1210 s.
Compound `Cc1nc([C@@H]2CN(C(=O)c3sccc3C)C[C@H]2C(N)=O)n[nH]1` gave an RP-LC retention time of 552 s.
For `CCOc1ccccc1CNC(=O)Cc1nnc(-c2cccc(F)c2)o1` the value was 805 s.
The compound `CN1C(=O)C2CCCCN2c2ccc(C(=O)NCCc3ccco3)cc21` (stereo not given) displayed an RP-LC retention time of 815 s.
In the case of `COc1ccccc1Oc1ccc(S(=O)(=O)NCC(=O)O)cc1`, the RP-LC retention time was 708 s.
`Cc1ccccc1NC(=O)N1CCCC(C)(C(=O)NCc2ccc(F)cc2)C1` (stereo not given) came in with an RP-LC retention time of 899 s.
`CCCCn1c(=O)c2ccccc2n(Cc2nc(-c3ccccc3)no2)c1=O`: the RP-LC retention time is 1140 s.
`O=C(COc1ccc(F)cc1)NCc1ccc2c(c1)OCCCO2` displayed an RP-LC retention time of 853 s.
For `O=C(NCCc1nc2cccnc2n1Cc1ccccc1)NCc1ccco1` the value was 678 s; for `COc1ccc(NC(=O)Cn2nc(C(F)(F)F)c(Br)c2C)cc1OC`, 958 s.
`CC(=O)N1CCC(C2CCN(S(=O)(=O)c3ccc(Cl)s3)C2)CC1` (stereo not given) came in with an RP-LC retention time of 761 s.
In the case of `CCOC(=O)C(Cc1c(C)[nH]c2ccccc12)C(=O)OCC`, the RP-LC retention time came to 1000 s.
With `CN1C(=O)c2ccccc2C(C(=O)NCCN(Cc2ccco2)C2CCCC2)C1c1cccs1` (stereo not given), the RP-LC retention time came out at 674 s.
For `CCCc1nc(-c2c(C)cc(C)nc2NC(=O)c2ccc(F)c(F)c2)no1` the value was 947 s.
For `Cn1nc(C(=O)NCc2ccc3c(c2)OCO3)c2c1CCN(C(=O)COc1ccc(F)cc1)C2` the value was 765 s; for `CCCN1CCN(c2ncc3c(n2)CCN(Cc2ccc(OC(C)C)cc2)C3)CC1`, 581 s; for `O=c1ccn(-c2cccc(F)c2)nc1-c1nc(-c2cccc(F)c2)no1`, 906 s.
With `O=C(c1ccc2ccccc2n1)N1CCN(C(=O)N2C[C@H]3C[C@H](C2)[C@H]2CCCC(=O)N2C3)CC1`, the RP-LC retention time was determined as 650 s.
For `CCCn1cc(CCNC(=O)c2ccc(Br)cc2)c2cccnc21` the value was 832 s; for `CCC1CCCCN1C(=O)c1cnc2nc(C)ccc2c1Nc1cccc(C)c1C` (stereo not given), 720 s.
As for `Cc1cn(C)c(CC(=O)N2CCc3ccccc32)c1C(=O)O`, the RP-LC retention time turned out to be 742 s.
For `O=c1c2cc(-c3ccc(F)cc3)nn2ccn1Cc1noc(CN2CCCCCCC2)n1` the value was 719 s.
`CCn1ccc2sc(C)c(C(=O)NCc3c(C)cc(C)cc3C)c2c1=O` returned an RP-LC retention time of 982 s.
For the compound `CCn1ccc(C(=O)NCc2cccnc2Oc2ccccc2)n1`, the RP-LC retention time was determined as 705 s.
`Cc1ccc(S(=O)(=O)N(C)CC2(C)CCOCC2)cc1F`: the RP-LC retention time was determined as 957 s.
On to `CCNc1ncnc2sc3c(c12)CCN(S(=O)(=O)c1ccccc1)C3`, for which the RP-LC retention time is 805 s.
For the compound `Cc1noc(C)c1-c1ccc(S(=O)(=O)N2CCC3(CC2)OCCO3)cc1`, the RP-LC retention time was 853 s.
Then `O=C1CCC(=O)N1CCc1c[nH]c2ccc(OCc3ccccc3)cc12`, with 1030 s; and `CCN1CCC(N(Cc2cccs2)C(=O)Nc2cc(OC)cc(OC)c2)CC1`, with 651 s.
`Cc1cccc(NS(=O)(=O)c2cc(-c3[nH]ncc3C(=O)N3CCCC3)oc2C)c1C` gave an RP-LC retention time of 725 s.
Compound `Cc1sc(-c2cc(C(F)(F)F)on2)cc1S(=O)(=O)NCCc1ccc(Cl)cc1` came in with an RP-LC retention time of 1220 s.
Compound `CCc1ccccc1NC(=O)Cc1nnc(-c2cnccn2)o1` gave an RP-LC retention time of 685 s.
Take `Cc1nnc([C@@H]2CC(F)(F)CN2C(=O)c2ccc3c(c2)OCO3)o1`: the RP-LC retention time worked out at 703 s.
In turn, `Fc1ccc(-c2csc(Cc3nc(-c4ccc(Cl)cc4)no3)n2)cc1` yielded an RP-LC retention time of 1310 s.
`CCc1ccc(CNC(=O)CCc2c(-c3ccc(Br)cc3)nc3ccccn23)cc1`: the RP-LC retention time was 753 s.
Regarding `COc1cccc(N2CC(NC(=O)Nc3cccnc3)CC2=O)c1` (stereo not given), the RP-LC retention time came to 544 s.
`O=C(CN1CCN(c2ccccc2)CC1)Nc1nc(-c2ccccc2)cs1` came in with an RP-LC retention time of 740 s.
In the case of `COc1cc2c3c(n(C)c(=O)c2cc1OC)-c1cc2c(cc1C3=O)OCO2`, the RP-LC retention time amounted to 840 s.
Then `CC(C)COc1cc(=O)n2c(c1C(=O)NCC1CCCCC1)CCCCC2`, with 864 s; and `O=C(NCCN1CCCCC1)C1CCN(c2ccc(-c3ccc(F)cc3)nn2)CC1`, with 567 s.
On to `Cc1ccc(CSc2nc(CC(=O)NCc3nnc(C)o3)cs2)cc1`, for which the RP-LC retention time came to 724 s.
`Cc1cccc(NC(=O)c2cn(C)nc2S(=O)(=O)N2CCSCC2)c1` came in with an RP-LC retention time of 941 s.
`Cc1ccccc1-c1noc(Cn2ccnc2C)n1` displayed an RP-LC retention time of 622 s.
`CCN(CC)c1ccc(-c2noc(CN3CCN(c4ncccn4)CC3)n2)cn1` came in with an RP-LC retention time of 655 s.
In turn, `O=C(NC1CC1)c1ccc(OCC2CCCN(C(=O)c3ccsc3)C2)cc1` (stereo not given) showed an RP-LC retention time of 737 s.
Then `CC(C)CNC(=O)C1CCN(C(=O)c2ncn3c2COC(c2ccc(F)cc2)C3)CC1` (stereo not given), with 711 s.
